{
  "source": "patent US6576596B1",
  "about": "“Substituted 2-benzoyl-cyclohexan-1,3-diones with herbicidal effect” (BASF Aktiengesellschaft, priority 1997, dated 2003)",
  "assay_type_in_all_cases": "in vivo",
  "key": {"Chenopodium album": {"test_system": "Chenopodium album", "assay": "greenhouse herbicidal test, post-emergence treatment", "settings": "0.125 or 0.0625 kg/ha (of a.s.), Chenopodium album (lambsquarters)", "from_the_text": "(§1) The culture containers used were plastic flowerpots containing loamy soil with approximately 3.0% of humus as the substrate. The seeds of the test plants were sown separately for each species.\n(§2) For the post-emergence treatment, the test plants were first grown to a plant height of 3 to 15 cm, depending on the plant habit, and only then treated with the active compounds which had been suspended or emulsified in water. The test plants for this purpose were either sown directly and grown in the same containers, or they were first grown separately as seedlings and transplanted into the test containers a few days prior to treatment. The rate of application for the post-emergence treatment was 0.125.or 0.0625 kg/ha of a.s. (active substance).\n(§3) Depending on the species, the plants were kept at 10-25° C. or 20-35° C. The test period extended over 2 to 4 weeks. During this time, the plants were tended, and their response to the individual treatments was evaluated.\n(§4) Evaluation was carried out using a scale from 0 to 100. 100 means no emergence of the plants, or complete destruction of at least the aerial parts, and 0 means no damage, or normal course of growth.\n(§5) The plants used in the greenhouse experiments belonged to the following species: […]"}, "Echinochloa crus galli": {"test_system": "Echinochloa crus galli", "assay": "greenhouse herbicidal test, post-emergence treatment", "settings": "0.125 or 0.0625 kg/ha (of a.s.), Echinochloa crus galli (barnyardgrass)", "from_the_text": "as §1, §2, §3, §4, §5"}, "Sinapis alba": {"test_system": "Sinapis alba", "assay": "greenhouse herbicidal test, post-emergence treatment", "settings": "0.125 or 0.0625 kg/ha (of a.s.), Sinapis alba (white mustard)", "from_the_text": "as §1, §2, §3, §4, §5"}, "Zea mays": {"test_system": "Zea mays", "assay": "greenhouse test, post-emergence treatment, crop tolerance", "settings": "0.125 or 0.0625 kg/ha (of a.s.)", "from_the_text": "as §1, §2, §3, §4, §5"}},
  "data": [
    {"molecule": "CCON=Cc1c(S(C)(=O)=O)ccc(C(=O)C2C(=O)CC(C)(C)CC2=O)c1Cl", "note": "[Compound 2.07, 2-(2-Chloro-3-ethoxyiminomethyl-4-methylsulfonylbenzoyl)-5,5-dimethyl-1,3-cyclohexanedione]", "values": [
      {"measurement": "herbicidal activity against harmful plants", "setting": "Chenopodium album", "value": "very good activity"},
      {"measurement": "herbicidal activity against harmful plants", "setting": "Echinochloa crus galli", "value": "very good activity"},
      {"measurement": "herbicidal activity against harmful plants", "setting": "Sinapis alba", "value": "very good activity"},
      {"measurement": "tolerance in crop plant maize", "setting": "Zea mays", "value": "well tolerated"}
    ]}
  ]
}
